Results as given in ChEMBL document CHEMBL1201862, “PubChem BioAssay data set” (2004).
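Assay format: 96-well plates, 48-hour exposure. GI50 marks 50% less growth.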 The source made the active and inactive calls. Rule as the data show it: active = GI50 up to about 1.1 µM and inactive = higher.

Legend:
Test in all cases: NCI-60 cell line screen, 48 h
[1] = test system: 786-0
[2] = test system: A549
[3] = test system: DU-145
[4] = test system: EKVX
[5] = test system: HCT-15
[6] = test system: HOP-62
[7] = test system: HT-29
[8] = test system: M14
[9] = test system: NCI-H460
[10] = test system: NCI-H522
[11] = test system: NCI/ADR-RES
[12] = test system: PC-3
[13] = test system: SF-295
[14] = test system: SF-539
[15] = test system: SK-MEL-2
[16] = test system: SN12C
[17] = test system: SR
[18] = test system: SW-620
[19] = test system: T47D
[20] = test system: UACC-62

COC(=O)[C@@H]1C=C[C@H](OC2OC(COC(C)=O)C(OC(C)=O)C(OC(C)=O)C2OC(C)=O)n2c(=O)c3ccccc3c(=O)n21 (stereo not given in full)
GI50 [1]: 16.1 µM (inactive)
GI50 [2]: 21.4 µM (inactive)
GI50 [3]: 16.1 µM (inactive)
GI50 [4]: 16.5 µM (inactive)
GI50 [5]: 10.8 µM
GI50 [6]: 17.9 µM (inactive)
GI50 [7]: 7.21 µM (inactive)
GI50 [8]: 15.3 µM (inactive)
GI50 [9]: 12.3 µM (inactive)
GI50 [10]: 1.68 µM (inactive)
GI50 [11]: 19.8 µM (inactive)
GI50 [12]: 6.62 µM (inactive)
GI50 [13]: 18.8 µM (inactive)
GI50 [14]: 15.7 µM (inactive)
GI50 [15]: 9.16 µM (inactive)
GI50 [16]: > 10 µM (inactive)
GI50 [17]: 4.82 µM (inactive)
GI50 [18]: 12.4 µM (inactive)
GI50 [19]: 4.7 µM (inactive)
GI50 [20]: 9.93 µM (inactive)
